Source: ChEMBL document CHEMBL5550145, “Synthesis and cytotoxicity evaluation of d- and l-sugar-containing mono- and bidesmosidic ursane-type saponins” (Bioorg Med Chem, 2024)

Experiments:
A549 = test: Cytotoxicity against human A549 cells assessed as inhibition of cell growth measured after 48 hrs by Hoechst 33258 staining based fluorescence assay; format: functional; settings: A549, 48 h
DLD-1 = test: Cytotoxicity against human DLD-1 cells assessed as inhibition of cell growth measured after 48 hrs by Hoechst 33258 staining based fluorescence assay; format: functional; settings: DLD-1, 48 h
[1] = Cytotoxicity against human WS1 cells assessed as inhibition of cell growth measured after 48 hrs by Hoechst 33258 staining based fluorescence assay; format: toxicity

Structure (SMILES) | IC50 (A549) | IC50 (DLD-1) | IC50 at 48 h [1]
C[C@H]1[C@H](C)CC[C@]2(CO[C@@H]3OC[C@@H](O)[C@H](O)[C@@H]3O)CC[C@]3(C)C(=CC[C@@H]4[C@@]5(C)CC[C@H](O[C@H]6OC[C@@H](O)[C@H](O)[C@@H]6O)C(C)(C)[C@@H]5CC[C@]43C)[C@H]12 | 34 µM | 38 µM | 10 µM
C[C@H]1[C@H](C)CC[C@]2(CO[C@@H]3O[C@H](C)[C@H](O)[C@H](O)[C@H]3O)CC[C@]3(C)C(=CC[C@@H]4[C@@]5(C)CC[C@H](O[C@@H]6O[C@H](C)[C@H](O)[C@H](O)[C@H]6O)C(C)(C)[C@@H]5CC[C@]43C)[C@H]12 | 8.9 µM | 12 µM | 16 µM
C[C@H]1[C@H](C)CC[C@]2(C(=O)O)CC[C@]3(C)C(=CC[C@@H]4[C@@]5(C)CC[C@H](O[C@@H]6OC[C@H](O)[C@H](O)[C@H]6O)C(C)(C)[C@@H]5CC[C@]43C)[C@H]12 | 3.5 µM | 3.8 µM | 5.9 µM
C[C@H]1[C@H](C)CC[C@]2(CO[C@@H]3O[C@@H](C)[C@H](O)[C@@H](O)[C@H]3O)CC[C@]3(C)C(=CC[C@@H]4[C@@]5(C)CC[C@H](O[C@@H]6O[C@@H](C)[C@H](O)[C@@H](O)[C@H]6O)C(C)(C)[C@@H]5CC[C@]43C)[C@H]12 | 4.5 µM | 11 µM | 14 µM
C[C@H]1[C@H](C)CC[C@]2(CO)CC[C@]3(C)C(=CC[C@@H]4[C@@]5(C)CC[C@H](O)C(C)(C)[C@@H]5CC[C@]43C)[C@H]12 [UVAOL] | > 200 µM | > 200 µM | > 200 µM
C=C(C)[C@@H]1CC[C@]2(CO[C@@H]3O[C@@H](C)[C@H](O)[C@@H](O)[C@H]3O)CC[C@]3(C)[C@H](CC[C@@H]4[C@@]5(C)CC[C@H](O[C@@H]6O[C@@H](C)[C@H](O)[C@@H](O)[C@H]6O)C(C)(C)[C@@H]5CC[C@]43C)[C@@H]12 | 1.07 µM | – | 1.42 µM
C[C@H]1[C@H](C)CC[C@]2(C(=O)O)CC[C@]3(C)C(=CC[C@@H]4[C@@]5(C)CC[C@H](O[C@H]6OC[C@@H](O)[C@@H](O)[C@@H]6O)C(C)(C)[C@@H]5CC[C@]43C)[C@H]12 | 9 µM | 7.9 µM | 10 µM
C[C@H]1[C@H](C)CC[C@]2(C(=O)O)CC[C@]3(C)C(=CC[C@@H]4[C@@]5(C)CC[C@H](O[C@@H]6OC[C@H](O)[C@@H](O)[C@H]6O)C(C)(C)[C@@H]5CC[C@]43C)[C@H]12 | 39 µM | 29 µM | 20 µM
C[C@H]1[C@H](C)CC[C@]2(CO[C@H]3O[C@@H](C)[C@@H](O)[C@@H](O)[C@@H]3O)CC[C@]3(C)C(=CC[C@@H]4[C@@]5(C)CC[C@H](O[C@H]6O[C@@H](C)[C@@H](O)[C@@H](O)[C@@H]6O)C(C)(C)[C@@H]5CC[C@]43C)[C@H]12 | 104 µM | 48 µM | 62 µM
C[C@H]1[C@H](C)CC[C@]2(CO[C@H]3OC[C@@H](O)[C@H](O)[C@H]3O)CC[C@]3(C)C(=CC[C@@H]4[C@@]5(C)CC[C@H](O[C@@H]6OC[C@@H](O)[C@H](O)[C@H]6O)C(C)(C)[C@@H]5CC[C@]43C)[C@H]12 | 15 µM | 14.9 µM | 20 µM
C[C@H]1[C@H](C)CC[C@]2(C(=O)O)CC[C@]3(C)C(=CC[C@@H]4[C@@]5(C)CC[C@H](O[C@@H]6O[C@H](C)[C@H](O)[C@H](O)[C@H]6O)C(C)(C)[C@@H]5CC[C@]43C)[C@H]12 | 7 µM | 15 µM | 13.1 µM
C[C@H]1[C@H](C)CC[C@]2(C(=O)O)CC[C@]3(C)C(=CC[C@@H]4[C@@]5(C)CC[C@H](O[C@@H]6O[C@@H](C)[C@H](O)[C@@H](O)[C@H]6O)C(C)(C)[C@@H]5CC[C@]43C)[C@H]12 | 14 µM | 11 µM | 8.5 µM
C[C@H]1[C@H](C)CC[C@]2(C(=O)O)CC[C@]3(C)C(=CC[C@@H]4[C@@]5(C)CC[C@H](O)C(C)(C)[C@@H]5CC[C@]43C)[C@H]12 [URSOLIC ACID] | 16 µM | 16 µM | 13.1 µM
C[C@H]1[C@H](C)CC[C@]2(C(=O)O)CC[C@]3(C)C(=CC[C@@H]4[C@@]5(C)CC[C@H](O[C@H]6O[C@H](C)[C@@H](O)[C@H](O)[C@@H]6O)C(C)(C)[C@@H]5CC[C@]43C)[C@H]12 | 65 µM | 61 µM | 77 µM
C[C@H]1[C@H](C)CC[C@]2(CO[C@@H]3OC[C@@H](O)[C@@H](O)[C@@H]3O)CC[C@]3(C)C(=CC[C@@H]4[C@@]5(C)CC[C@H](O[C@H]6OC[C@@H](O)[C@@H](O)[C@@H]6O)C(C)(C)[C@@H]5CC[C@]43C)[C@H]12 | 10 µM | 16 µM | 20 µM
C[C@H]1[C@H](C)CC[C@]2(CO[C@H]3OC[C@H](O)[C@@H](O)[C@H]3O)CC[C@]3(C)C(=CC[C@@H]4[C@@]5(C)CC[C@H](O[C@@H]6OC[C@H](O)[C@@H](O)[C@H]6O)C(C)(C)[C@@H]5CC[C@]43C)[C@H]12 | 15 µM | 57 µM | 60 µM
C[C@H]1[C@H](C)CC[C@]2(CO[C@H]3O[C@H](C)[C@@H](O)[C@H](O)[C@@H]3O)CC[C@]3(C)C(=CC[C@@H]4[C@@]5(C)CC[C@H](O[C@H]6O[C@H](C)[C@@H](O)[C@H](O)[C@@H]6O)C(C)(C)[C@@H]5CC[C@]43C)[C@H]12 | 104 µM | 109 µM | > 200 µM
COc1cc([C@@H]2c3cc4c(cc3[C@@H](O[C@@H]3O[C@@H]5CO[C@@H](C)O[C@H]5[C@H](O)[C@H]3O)[C@H]3COC(=O)[C@H]23)OCO4)cc(OC)c1O [ETOPOSIDE] | 1.9 µM | 5.1 µM | > 50 µM
C[C@H]1[C@H](C)CC[C@]2(CO[C@H]3OC[C@H](O)[C@H](O)[C@H]3O)CC[C@]3(C)C(=CC[C@@H]4[C@@]5(C)CC[C@H](O[C@@H]6OC[C@H](O)[C@H](O)[C@H]6O)C(C)(C)[C@@H]5CC[C@]43C)[C@H]12 | 8.9 µM | 31 µM | 37 µM
C[C@H]1[C@H](C)CC[C@]2(C(=O)O)CC[C@]3(C)C(=CC[C@@H]4[C@@]5(C)CC[C@H](O[C@H]6OC[C@H](O)[C@@H](O)[C@@H]6O)C(C)(C)[C@@H]5CC[C@]43C)[C@H]12 | 35 µM | 36 µM | 30 µM
C[C@H]1[C@H](C)CC[C@]2(C(=O)O)CC[C@]3(C)C(=CC[C@@H]4[C@@]5(C)CC[C@H](O[C@H]6OC[C@@H](O)[C@H](O)[C@@H]6O)C(C)(C)[C@@H]5CC[C@]43C)[C@H]12 | 9 µM | 6.4 µM | 4.6 µM
C[C@H]1[C@H](C)CC[C@]2(C(=O)O)CC[C@]3(C)C(=CC[C@@H]4[C@@]5(C)CC[C@H](O[C@@H]6OC[C@@H](O)[C@H](O)[C@H]6O)C(C)(C)[C@@H]5CC[C@]43C)[C@H]12 | 7.4 µM | 7 µM | 9 µM
C[C@H]1[C@H](C)CC[C@]2(CO[C@@H]3OC[C@H](O)[C@@H](O)[C@@H]3O)CC[C@]3(C)C(=CC[C@@H]4[C@@]5(C)CC[C@H](O[C@H]6OC[C@H](O)[C@@H](O)[C@@H]6O)C(C)(C)[C@@H]5CC[C@]43C)[C@H]12 | 9.8 µM | > 200 µM | > 200 µM
C[C@H]1[C@H](C)CC[C@]2(C(=O)O)CC[C@]3(C)C(=CC[C@@H]4[C@@]5(C)CC[C@H](O[C@H]6O[C@@H](C)[C@@H](O)[C@@H](O)[C@@H]6O)C(C)(C)[C@@H]5CC[C@]43C)[C@H]12 | 3.7 µM | 15 µM | 7.2 µM
